This note sets out measurements from patent publication US20140057915A1, “KINASE INHIBITORS” (TOPIVERT PHARMA LIMITED, priority 2012, published 2014).

For data set [1], the target named is Syk (Homo sapiens, UniProt P43405). Briefly: Enzyme binding assay (Kinomescan). The following applies: read-out: % Inhibition of kinase binding at 500 nM, Syk. As for the experimental part:
(§1) Enzyme Binding Assays (Kinomescan)
(§2) These assays were conducted by DiscoverX (formerly Ambit; San Diego, Calif.). The percentage inhibition produced by incubation with a test compound is calculated relative to the non-inhibited control.

Data set [2] concerns the target GSK3α (Homo sapiens, UniProt P49840). Nature of the data set: Enzyme binding assay (Kinomescan). The following applies: read-out: % Inhibition of kinase binding at 500 nM, GSK3α. As for the experimental part: as §2
Data set [3] has as its target B-Raf (Homo sapiens, UniProt P15056). Briefly: Enzyme binding assay (Kinomescan). The following applies: read-out: % Inhibition of kinase binding at 500 nM, B-Raf. On the procedure: as §1
(§3) The kinase enzyme binding activities of compounds disclosed herein were determined using a proprietary assay which measures active site-directed competition binding to an immobilized ligand (Fabian, M. A. et al., Nature Biotechnol., 2005, 23:329-336). These assays were conducted by DiscoverX (formerly Ambit; San Diego, Calif.). The percentage inhibition produced by incubation with a test compound is calculated relative to the non-inhibited control.

Data set [4] deals with p38 MAPKα (Homo sapiens, UniProt Q16539). Nature of the data set: Enzyme binding assay (Kinomescan). The following applies: read-out: % Inhibition of kinase binding at 500 nM, p38 MAPKα. On the procedure: as §1, §3
For data set [5], the system named is d-U937 cells. Nature of the data set: Cell viability: MTT assay. The class given is cell-based, human. Particulars: 1 μg/mL. In a few lines:
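MTT reduction (1 h, DMSO solubilisation, A550) measured after compound treatment at 1 or 10 μg/mL of differentiated U937 cells for 4 h (5% FCS RPMI1640) or 24 h (10% FCS). Percentage viability loss computed relative to 0.5% DMSO vehicle, with increases tabulated as negative values.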

Data set [6] relates to ICAM-1 expression, BEAS2B cells. Nature of the data set: Poly I:C-induced ICAM-1 expression in BEAS2B cells. It is filed as cell-based. Particulars: Homo sapiens, BEAS-2B; read-out: Poly IC induced ICAM1 in BEAS2B, IC50. In a few lines: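 Cell-based ELISA for surface ICAM-1 in human BEAS2B cells 18 h after transfection with the RNA-virus mimic poly I:C (1 μg/mL, with Oligofectamine), compounds added 2 h beforehand. OD450–655 divided by Crystal Violet OD595 per well; percent inhibition relative to vehicle.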

For data set [7], the system named is TNFα release, d-U937 cells. Nature of the data set: LPS-induced TNFα release in d-U937 cells. Particulars: Homo sapiens, dU937; relative to 10 μg/mL BIRB796; Table 4c1; read-out: LPS Induced Release of Cytokine in d-U937 Cells, TNFα REC50. It is filed as cell-based. In outline: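 Sandwich ELISA quantifies cytokine in supernatants after 4 hr LPS challenge (0.1 μg/mL) of PMA-differentiated (100 ng/mL, 48–72 hr) U937 macrophages given compound 2 hr beforehand. REC50 derived from concentration-response curve, inhibition calculated relative to vehicle.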

For data set [8], the system named is mice. Briefly: Mouse cigarette (tobacco) smoke model. It is filed as in vivo. The following applies: 1.75 μg/mouse (35 μL, bid, i.n.). The text has this:
The result of treatment with compound Example (8) on macrophage and neutrophil accumulation in BALF in the mouse cigarette smoke model was investigated (Table 5).

Chain of B-Raf (P15056 whole entry): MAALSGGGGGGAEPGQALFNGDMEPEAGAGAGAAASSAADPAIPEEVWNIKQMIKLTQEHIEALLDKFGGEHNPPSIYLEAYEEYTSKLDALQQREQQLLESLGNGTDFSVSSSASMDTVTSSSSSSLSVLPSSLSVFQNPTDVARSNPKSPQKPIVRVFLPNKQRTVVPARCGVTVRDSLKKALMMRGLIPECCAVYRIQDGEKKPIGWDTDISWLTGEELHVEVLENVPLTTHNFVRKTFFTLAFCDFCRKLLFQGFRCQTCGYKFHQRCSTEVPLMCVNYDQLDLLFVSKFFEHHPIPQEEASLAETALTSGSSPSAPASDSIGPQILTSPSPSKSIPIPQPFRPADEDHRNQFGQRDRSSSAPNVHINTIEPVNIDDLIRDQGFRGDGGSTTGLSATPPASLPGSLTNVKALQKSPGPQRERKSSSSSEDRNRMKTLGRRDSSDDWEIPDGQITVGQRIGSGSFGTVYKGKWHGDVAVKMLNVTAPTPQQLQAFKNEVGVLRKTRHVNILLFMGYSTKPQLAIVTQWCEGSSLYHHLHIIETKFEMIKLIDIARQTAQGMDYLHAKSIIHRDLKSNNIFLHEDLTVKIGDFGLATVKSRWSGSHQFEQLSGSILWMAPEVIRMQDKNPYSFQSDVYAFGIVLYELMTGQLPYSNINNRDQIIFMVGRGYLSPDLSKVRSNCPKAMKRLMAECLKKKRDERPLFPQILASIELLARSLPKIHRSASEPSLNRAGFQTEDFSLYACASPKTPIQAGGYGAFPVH
Chain of p38 MAPKα (Q16539 whole entry): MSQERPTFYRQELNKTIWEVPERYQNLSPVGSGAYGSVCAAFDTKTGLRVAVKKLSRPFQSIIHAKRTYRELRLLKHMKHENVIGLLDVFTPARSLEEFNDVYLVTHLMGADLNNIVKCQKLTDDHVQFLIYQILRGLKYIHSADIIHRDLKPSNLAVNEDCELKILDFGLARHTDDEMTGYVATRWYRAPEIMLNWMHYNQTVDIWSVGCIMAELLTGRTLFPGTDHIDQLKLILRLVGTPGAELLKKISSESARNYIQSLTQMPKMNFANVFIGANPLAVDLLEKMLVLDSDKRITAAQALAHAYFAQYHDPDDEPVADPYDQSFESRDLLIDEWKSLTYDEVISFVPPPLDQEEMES
Chain of GSK3α (P49840 whole entry): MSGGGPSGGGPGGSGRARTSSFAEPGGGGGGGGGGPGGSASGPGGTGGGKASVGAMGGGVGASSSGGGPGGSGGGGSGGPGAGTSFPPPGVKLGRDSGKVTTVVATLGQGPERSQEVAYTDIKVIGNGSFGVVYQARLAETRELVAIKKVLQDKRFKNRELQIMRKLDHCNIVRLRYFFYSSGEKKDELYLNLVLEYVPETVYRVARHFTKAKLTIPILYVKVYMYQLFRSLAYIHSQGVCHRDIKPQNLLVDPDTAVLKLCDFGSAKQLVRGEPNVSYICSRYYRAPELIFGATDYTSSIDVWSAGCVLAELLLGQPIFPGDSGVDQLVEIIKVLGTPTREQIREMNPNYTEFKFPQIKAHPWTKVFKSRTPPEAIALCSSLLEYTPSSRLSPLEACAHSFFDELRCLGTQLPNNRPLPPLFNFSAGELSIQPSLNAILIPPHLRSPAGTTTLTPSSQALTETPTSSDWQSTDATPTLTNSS

As usually defined, the inhibition is the share of the control response that was lost under treatment. The term IC50 denotes the point on the concentration scale where inhibition reaches its midpoint. Turning to `COCC(=O)Nc1cc(Oc2ccc(NC(=O)Nc3cc(C(C)(C)C)nn3-c3ccc(C)cc3)c3ccccc23)ccn1` [Reference Compound, N-(4-(4-(3-(3-tert-butyl-1-p-tolyl-1H-pyrazol-5-yl)ureido)naphthalen-1-yloxy)pyridin-2-yl)-2-methoxyacetamide, reference compound], the inhibition at 0.5 µM in data set [1] was 95%; in data set [2], 84%; in data set [3], 70%; in data set [4], 100%. Moreover, in data set [5] (4 h), the “Cell viability at time point in d-U937 cells, 4 h” value is “−ve (−ve and +ve indicate that the value is below and above respectively, the no significant effect threshold, defined as 30% inhibition at 1 μg/mL at the time point indicated)”. Besides, in data set [5] (24 h), the “Cell viability at time point in d-U937 cells, 24 h” value was “+ve (−ve and +ve indicate that the value is below and above respectively, the no significant effect threshold, defined as 30% inhibition at 1 μg/mL at the time point indicated)”. Moreover, in data set [6], the IC50 came to 2.1 nM. Further, the EC50 in data set [7] is 0.13 nM.
With `CCC(=O)O[C@]1(C(=O)SCF)[C@H](C)C[C@H]2[C@@H]3C[C@H](F)C4=CC(=O)C=C[C@]4(C)[C@@]3(F)[C@@H](O)C[C@@]21C` [fluticasone propionate], in data set [8], the “neutrophil or macrophage accumulation into airways” value is given as “did not inhibit”.
